Experiment [1] is described as follows: Cytotoxicity against mouse Neuro2a cells after 48 hrs by MTT assay. Format: functional, cell-based. As to conditions: N2a.
A further experiment deals with HeLa. Briefly: Cytotoxicity against human HeLa cells after 48 hrs by MTT assay. Type of experiment: functional, cell-based.

This is an account of results in ChEMBL document CHEMBL1821669, “Cyclic depsipeptides, grassypeptolides D and E and Ibu-epidemethoxylyngbyastatin 3, from a Red Sea Leptolyngbya cyanobacterium” (J Nat Prod, 2011).

pIC50: −log10 of the molar value. Numbered stars: 1 amine (or outer) side, 2 acyl side, 3 side chain; on linkers, the order of the positions; unused ones are H or OH. Square brackets hold non-standard residues; d marks the D form. Peptide text beside a SMILES is read from it. X2 = CCC[C@@H](N[*:1])[C@H](C)C(=O)O[C@H](C(=O)[*:2])[C@@H](C)CC; X3 = CC[C@H](C)[C@H](OC(=O)[C@@H](C)[C@@H](CC)N[*:1])C(=O)[*:2]; dAbuψ(thiazoline)Cys = CC[C@@H](N[*:1])C1=N[C@H](C(=O)[*:2])CS1; X4 = CN([C@@H](Cc1ccccc1)C1=N[C@H](C(=O)[*:2])CS1)[*:1]; dβ3hAla(2R-Me) = C[C@@H](N[*:1])[C@@H](C)C(=O)[*:2]; X1 = C[C@H](N[*:1])C(=O)C(C)(C)C(=O)[*:2]; d(aThr) = C[C@@H](O)[C@@H](N)C(=O)O; NMeF = CN[C@@H](Cc1ccccc1)C(=O)O; PhLac = O=C(O)[C@@H](O)Cc1ccccc1; NMeL = CN[C@@H](CC(C)C)C(=O)O; dNMeL = CN[C@H](CC(C)C)C(=O)O; NMeV = CN[C@H](C(=O)O)C(C)C; NMeA = CN[C@@H](C)C(=O)O

In experiment [1], `CCC[C@H]1NC(=O)[C@H](C)N(C)C(=O)C(C)(C)C(=O)[C@H](C)NC(=O)[C@H](Cc2ccccc2)N(C)C(=O)[C@H](C(C)C)N(C)C(=O)CNC(=O)[C@H](CC(C)C)N(C)C(=O)CNC(=O)[C@H]([C@@H](C)CC)OC(=O)[C@H]1C` (cyclo(G[NMeL]G[NMeV][NMeF][X1][NMeA][X2])) had a pIC50 below 5.00.

As to `CC[C@H](C)[C@@H]1OC(=O)[C@@H](C)[C@@H](CC)NC(=O)[C@H](C)N(C)C(=O)C(C)(C)C(=O)[C@H](C)NC(=O)[C@H](Cc2ccccc2)N(C)C(=O)[C@H](C(C)C)N(C)C(=O)CNC(=O)[C@H](CC(C)C)N(C)C(=O)CNC1=O` [DOLASTATIN 12] (cyclo(G[NMeL]G[NMeV][NMeF][X1][NMeA][X3])), the pIC50 in experiment [1] is below 6.00.

`CC[C@H]1NC(=O)[C@@H]2CSC(=N2)[C@H](Cc2ccccc2)N(C)C(=O)[C@@H]2CCCN2C(=O)[C@H](C(C)C)N(C)C(=O)[C@H](Cc2ccccc2)OC(=O)[C@H](C)[C@@H](C)NC(=O)[C@@H]([C@@H](C)O)NC(=O)[C@@H](CC(C)C)N(C)C(=O)[C@@H]2CSC1=N2` [GRASSYPEPTOLIDE C] (cyclo([NMeV]P[X4][dAbuψ(thiazoline)Cys][dNMeL][d(aThr)][dβ3hAla(2R-Me)][PhLac])) showed a pIC50 in the experiment with HeLa of 7.35.

Turning to `CC[C@H]1NC(=O)[C@@]2(C)CSC(=N2)[C@H](Cc2ccccc2)N(C)C(=O)[C@@H]2CCCN2C(=O)[C@H](C(C)C)N(C)C(=O)[C@H](Cc2ccccc2)OC(=O)[C@H](C)[C@@H](C)NC(=O)[C@@H]([C@@H](C)O)NC(=O)[C@@H](CC(C)C)N(C)C(=O)[C@@H]2CSC1=N2` [GRASSYPEPTOLIDE D], the values for the pIC50 (in experiment [1]; in the experiment on HeLa) were 6.22 and 6.47, respectively.

`CC[C@H]1NC(=O)[C@@]2(C)CSC(=N2)[C@H](Cc2ccccc2)N(C)C(=O)[C@@H]2CCCN2C(=O)[C@H](C(C)C)N(C)C(=O)[C@H](Cc2ccccc2)OC(=O)[C@H](C)[C@@H](C)NC(=O)[C@H]([C@@H](C)O)NC(=O)[C@H](CC(C)C)N(C)C(=O)[C@@H]2CSC1=N2` [GRASSYPEPTOLIDE E]: the pIC50 in experiment [1] is 6.39; in the experiment on HeLa it was 6.72.
